We go through two molecules from US20070066651A1, “Pyrazoline derivatives useful for the treatment of cancer” (LABORATORIOS DEL DR. ESTEVE S.A., priority 2004, published 2007).

SMILES strings stand for the structures.

In one assay the target is T1, human recombinant COX-2 (Homo sapiens, UniProt P35354).
T1 construct: purchased Oxford Biomedical Research Inc
T1 sequence (P35354 18-604): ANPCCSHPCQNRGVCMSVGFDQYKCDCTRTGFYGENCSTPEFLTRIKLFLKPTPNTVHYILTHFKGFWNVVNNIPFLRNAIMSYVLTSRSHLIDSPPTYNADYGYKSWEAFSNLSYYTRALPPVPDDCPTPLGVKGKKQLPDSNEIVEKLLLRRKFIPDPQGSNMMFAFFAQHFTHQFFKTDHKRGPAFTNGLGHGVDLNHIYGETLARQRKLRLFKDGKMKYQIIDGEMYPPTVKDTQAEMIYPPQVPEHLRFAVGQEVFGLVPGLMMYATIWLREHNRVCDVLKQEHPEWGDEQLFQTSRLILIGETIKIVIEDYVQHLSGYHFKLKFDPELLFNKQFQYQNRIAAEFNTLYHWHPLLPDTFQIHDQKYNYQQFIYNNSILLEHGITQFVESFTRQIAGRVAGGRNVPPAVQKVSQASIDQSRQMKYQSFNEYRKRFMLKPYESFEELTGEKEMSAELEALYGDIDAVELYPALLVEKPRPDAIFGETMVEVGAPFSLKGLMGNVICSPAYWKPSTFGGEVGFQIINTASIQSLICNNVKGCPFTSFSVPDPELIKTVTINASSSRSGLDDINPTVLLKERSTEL
Description: Cyclooxygenase enzyme assay (TLC method), COX-2. It is filed as biochemical. As to conditions: human recombinant COX-2, preincubation 90-120 min, [1-14C] arachidonic acid; read-out: IC50 COX-2, inhibition of cyclooxygenase activity. On the procedure:
The compounds of formula I are potent inhibitors of COX-2. […] The resulting radiolabeled prostanoid compounds, i.e., the products of COX-2 reaction with arachidonic acid, were quantified.
Cyclooxygenase activity of ovine COX-1 (Oxford Biomedical Research Inc.) and human recombinant COX-2 (Oxford Biomedical Research Inc.) was assayed by a thin layer chromatography (TLC) method as follows. All inhibitors were dissolved in dimethyl sulfoxide to a stock solution of 5 mM. Human recombinant COX-2 (3 units) or ovine COX-1 (15 units) was incubated with inhibitors at several concentrations in a solution containing 100 mM Tris-HCl, pH7.8, 500 μM phenol and hematin for 90 to 120 minutes at room temperature (24° C.). In controls, equal volumes of DMSO without drug were added to the incubation mixture. After incubation for 90-120 minutes, [1-^14C] arachidonic acid (50 μM, 51 mCi/mmol) (DuPont NEN) was added and incubated at 37° C. for 2 minutes. The reaction was terminated by extraction with 1 ml of ethyl acetate. The ethyl acetate layer was transferred into a fresh tube and evaporated to dryness in a Speedvac vacuum dryer. […] Radiolabeled prostanoid compounds (the products of COX enzymatic reaction with radiolabeled arachidonic acid substrate) were quantitated with a radioactivity scanner (Fuji, Phosphorimager). […]

Another assay addresses T2, ovine COX-1 (Ovis aries, UniProt P05979).
T2 construct: purchased Oxford Biomedical Research Inc
T2 sequence (P05979 25-600): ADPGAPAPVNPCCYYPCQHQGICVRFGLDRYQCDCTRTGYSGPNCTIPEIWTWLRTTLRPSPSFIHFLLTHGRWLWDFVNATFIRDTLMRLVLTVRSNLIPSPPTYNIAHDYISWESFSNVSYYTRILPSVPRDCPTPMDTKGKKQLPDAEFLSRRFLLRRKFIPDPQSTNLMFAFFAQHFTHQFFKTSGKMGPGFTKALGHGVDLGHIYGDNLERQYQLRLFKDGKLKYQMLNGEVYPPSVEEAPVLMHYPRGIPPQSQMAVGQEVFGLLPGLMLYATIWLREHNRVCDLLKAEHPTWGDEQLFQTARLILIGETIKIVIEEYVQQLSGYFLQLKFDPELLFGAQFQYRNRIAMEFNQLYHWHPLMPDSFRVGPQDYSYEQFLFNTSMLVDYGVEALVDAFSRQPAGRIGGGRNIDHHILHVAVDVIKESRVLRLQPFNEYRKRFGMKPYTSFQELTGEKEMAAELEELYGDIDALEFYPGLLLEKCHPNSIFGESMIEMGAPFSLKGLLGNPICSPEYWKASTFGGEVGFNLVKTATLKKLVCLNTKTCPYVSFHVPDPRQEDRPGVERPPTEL
Description: Cyclooxygenase enzyme assay (TLC method), COX-1. Format: biochemical. As to conditions: ovine COX-1, preincubation 90-120 min, [1-14C] arachidonic acid; read-out: IC50 COX-1, inhibition of cyclooxygenase activity. The procedure: Cyclooxygenase activity of ovine COX-1 (Oxford Biomedical Research Inc.) and human recombinant COX-2 (Oxford Biomedical Research Inc.) was assayed by a thin layer chromatography (TLC) method as follows. All inhibitors were dissolved in dimethyl sulfoxide to a stock solution of 5 mM. Human recombinant COX-2 (3 units) or ovine COX-1 (15 units) was incubated with inhibitors at several concentrations in a solution containing 100 mM Tris-HCl, pH7.8, 500 μM phenol and hematin for 90 to 120 minutes at room temperature (24° C.). In controls, equal volumes of DMSO without drug were added to the incubation mixture. After incubation for 90-120 minutes, [1-^14C] arachidonic acid (50 μM, 51 mCi/mmol) (DuPont NEN) was added and incubated at 37° C. for 2 minutes. The reaction was terminated by extraction with 1 ml of ethyl acetate. The ethyl acetate layer was transferred into a fresh tube and evaporated to dryness in a Speedvac vacuum dryer. The contents of the tubes were reconstituted in […] of ethyl acetate and spotted on a TLC plate (J. T. Baker, Phillipsburg, N.J.) and developed in a mobile phase containing chloroform/methanol (95:5) at 4° C. Radiolabeled prostanoid compounds (the products of COX enzymatic reaction with radiolabeled arachidonic acid substrate) were quantitated with a radioactivity scanner (Fuji, Phosphorimager). […]

Another assay concerns DLD-1 cells. Briefly: Soft agar assay, colony growth of DLD-1 cells. Format: cell-based, human. As to conditions: highest concentration tested (range 10 μM to 75 μM), one dose, stained after 20 days, versus untreated control cells. On the procedure: The Example 1 and 24 compounds were compared to the COX-2 inhibitor celecoxib in inhibiting the growth of DLD-1 cells in soft agar. DLD-1 cells are human colorectal carcinoma cells that overexpress COX-2. DLD-1 cells grow in soft agar and form tumors in nude mice. The soft agar assay was performed as follows. A layer of bottom agar ([…]) was placed onto 60 mm^2 tissue culture dishes. The tumor cells were trypsinized from normal growth flasks while in exponential growth. The cells were counted by using a hemacytometer and 1.0×10^5 cells were placed into the top agar mixture containing growth medium, 4% noble agar and various concentrations of drugs. The concentration range was normally between 10 μM to 75 μM. The cells were not refed during the assay system; therefore, the cells were treated with one dose of the agents. The plates were stained 20 days later with a 0.05% (w/v) nitroblue tetrazolium solution (which stains only viable cells) for 48 hours. The results are shown in FIG. 1, the y-axis being the percent of cell colonies remaining in comparison to untreated control cells.

The term IC50 denotes the concentration needed to halve the response being measured. As for `NS(=O)(=O)c1ccc(N2N=C(C(F)(F)F)CC2c2ccccc2)cc1` (stereo not drawn) [Example 1, 1-(4-sulfamylphenyl)-3-trifluoromethyl-5-phenyl-2-pyrazoline], the concentration for half-maximal inhibition (IC50) on human recombinant COX-2 was 100 nM; on ovine COX-1 it was more than 100000 nM. Moreover, the “inhibition of DLD-1 cell colony growth in soft agar” value in the assay on DLD-1 cells is on record as 100%.
Regarding `NS(=O)(=O)c1ccc(N2N=C(C(F)(F)F)CC2c2c[nH]c3ccccc23)cc1` (stereo not drawn) [Example 24, 1-(4-sulfamylphenyl)-3-trifluoromethyl-5-(3-indolyl)-2-pyrazoline], the half-maximal inhibitory concentration (IC50) was 78 nM at human recombinant COX-2 and more than 100000 nM on ovine COX-1. Besides, the “inhibition of DLD-1 cell colony growth in soft agar” value in the assay with DLD-1 cells stood at 100%.
